Legend:
Assay in all cases: KINOMEscan competition binding
Conditions in all cases: compound 10.0 µM
TNIK (human) = TNIK (human) (UniProt Q9UKE5)
PRKAA1 (human) = PRKAA1 (human) (UniProt Q13131)
MST4 (human) = MST4 (human) (UniProt Q9P289)
BRSK1 (human) = BRSK1 (human) (UniProt Q8TDC3)
RIOK1 (human) = RIOK1 (human) (UniProt Q9BRS2)
PRKCQ (human) = PRKCQ (human) (UniProt Q04759)
FLT4 (human) = FLT4 (human) (UniProt P35916)
CAMK2D (human) = CAMK2D (human) (UniProt Q13557)
AKT2 (human) = AKT2 (human) (UniProt P31751)
MELK (human) = MELK (human) (UniProt Q14680)
MAPK6 (human) = MAPK6 (human) (UniProt Q16659)
MKNK1 (human) = MKNK1 (human) (UniProt Q9BUB5)
CSNK2A1 (human) = CSNK2A1 (human) (UniProt P68400)
CAMK2B (human) = CAMK2B (human) (UniProt Q13554)
CSNK1G3 (human) = CSNK1G3 (human) (UniProt Q9Y6M4)
RPS6KA4 KD2 (human) = RPS6KA4 KD2 (human) (UniProt O75676)
FGR (human) = FGR (human) (UniProt P09769)
CDC2L2 (human) = CDC2L2 (human) (UniProt Q9UQ88)
CSNK2A2 (human) = CSNK2A2 (human) (UniProt P19784)
AURKC (human) = AURKC (human) (UniProt Q9UQB9)
Chain of AURKC (human) (Q9UQB9 whole entry, looked up): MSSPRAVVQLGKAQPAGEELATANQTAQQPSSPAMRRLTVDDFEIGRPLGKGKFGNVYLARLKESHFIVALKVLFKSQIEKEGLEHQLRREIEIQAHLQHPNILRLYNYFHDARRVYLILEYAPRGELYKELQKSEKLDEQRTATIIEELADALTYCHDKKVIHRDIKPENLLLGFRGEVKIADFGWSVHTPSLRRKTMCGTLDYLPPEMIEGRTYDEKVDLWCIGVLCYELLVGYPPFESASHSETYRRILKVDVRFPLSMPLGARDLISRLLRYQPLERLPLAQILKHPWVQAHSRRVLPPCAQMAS

LATS1 (human) = LATS1 (human) (UniProt O95835)
LIMK2 (human) = LIMK2 (human) (UniProt P53671)
CDK9 (human) = CDK9 (human) (UniProt P50750)
MAP4K4 (human) = MAP4K4 (human) (UniProt O95819)
PRKD1 (human) = PRKD1 (human) (UniProt Q15139)
Chain of PRKD1 (human) (Q15139 whole entry, looked up): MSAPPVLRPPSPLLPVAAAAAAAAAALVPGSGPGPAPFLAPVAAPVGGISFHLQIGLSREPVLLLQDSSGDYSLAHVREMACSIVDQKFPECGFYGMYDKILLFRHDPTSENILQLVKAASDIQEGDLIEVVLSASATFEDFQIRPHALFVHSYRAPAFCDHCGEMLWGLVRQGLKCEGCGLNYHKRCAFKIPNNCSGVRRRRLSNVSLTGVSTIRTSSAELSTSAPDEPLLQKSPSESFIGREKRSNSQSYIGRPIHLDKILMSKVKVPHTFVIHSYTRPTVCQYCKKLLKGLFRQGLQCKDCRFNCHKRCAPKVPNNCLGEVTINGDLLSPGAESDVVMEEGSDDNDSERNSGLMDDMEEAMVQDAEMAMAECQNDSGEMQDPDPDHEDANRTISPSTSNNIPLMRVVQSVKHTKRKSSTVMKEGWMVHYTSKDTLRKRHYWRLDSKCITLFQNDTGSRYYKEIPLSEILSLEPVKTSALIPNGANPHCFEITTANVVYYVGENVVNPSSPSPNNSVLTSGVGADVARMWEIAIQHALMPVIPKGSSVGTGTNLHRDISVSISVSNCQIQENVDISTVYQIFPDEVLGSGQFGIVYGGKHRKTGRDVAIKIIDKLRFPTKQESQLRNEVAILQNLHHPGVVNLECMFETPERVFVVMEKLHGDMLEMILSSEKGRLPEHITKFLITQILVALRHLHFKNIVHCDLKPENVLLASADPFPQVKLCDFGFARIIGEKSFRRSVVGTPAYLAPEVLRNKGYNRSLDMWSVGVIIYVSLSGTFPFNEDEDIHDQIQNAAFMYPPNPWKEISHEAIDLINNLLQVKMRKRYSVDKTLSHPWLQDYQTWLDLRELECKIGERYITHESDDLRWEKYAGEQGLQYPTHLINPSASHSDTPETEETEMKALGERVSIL

ERBB2 (human) = ERBB2 (human) (UniProt P04626)
NUAK2 (human) = NUAK2 (human) (UniProt Q9H093)
SIK2 (human) = SIK2 (human) (UniProt Q9H0K1)
NLK (human) = NLK (human) (UniProt Q9UBE8)
AKT3 (human) = AKT3 (human) (UniProt Q9Y243)
CLK1 (human) = CLK1 (human) (UniProt P49759)
PAK1 (human) = PAK1 (human) (UniProt Q13153)
CSNK1G2 (human) = CSNK1G2 (human) (UniProt P78368)
RIPK1 (human) = RIPK1 (human) (UniProt Q13546)
SRPK1 (human) = SRPK1 (human) (UniProt Q96SB4)
PRKCH (human) = PRKCH (human) (UniProt P24723)
MYLK (human) = MYLK (human) (UniProt Q15746)
Chain of MYLK (human) (Q15746 whole entry, looked up): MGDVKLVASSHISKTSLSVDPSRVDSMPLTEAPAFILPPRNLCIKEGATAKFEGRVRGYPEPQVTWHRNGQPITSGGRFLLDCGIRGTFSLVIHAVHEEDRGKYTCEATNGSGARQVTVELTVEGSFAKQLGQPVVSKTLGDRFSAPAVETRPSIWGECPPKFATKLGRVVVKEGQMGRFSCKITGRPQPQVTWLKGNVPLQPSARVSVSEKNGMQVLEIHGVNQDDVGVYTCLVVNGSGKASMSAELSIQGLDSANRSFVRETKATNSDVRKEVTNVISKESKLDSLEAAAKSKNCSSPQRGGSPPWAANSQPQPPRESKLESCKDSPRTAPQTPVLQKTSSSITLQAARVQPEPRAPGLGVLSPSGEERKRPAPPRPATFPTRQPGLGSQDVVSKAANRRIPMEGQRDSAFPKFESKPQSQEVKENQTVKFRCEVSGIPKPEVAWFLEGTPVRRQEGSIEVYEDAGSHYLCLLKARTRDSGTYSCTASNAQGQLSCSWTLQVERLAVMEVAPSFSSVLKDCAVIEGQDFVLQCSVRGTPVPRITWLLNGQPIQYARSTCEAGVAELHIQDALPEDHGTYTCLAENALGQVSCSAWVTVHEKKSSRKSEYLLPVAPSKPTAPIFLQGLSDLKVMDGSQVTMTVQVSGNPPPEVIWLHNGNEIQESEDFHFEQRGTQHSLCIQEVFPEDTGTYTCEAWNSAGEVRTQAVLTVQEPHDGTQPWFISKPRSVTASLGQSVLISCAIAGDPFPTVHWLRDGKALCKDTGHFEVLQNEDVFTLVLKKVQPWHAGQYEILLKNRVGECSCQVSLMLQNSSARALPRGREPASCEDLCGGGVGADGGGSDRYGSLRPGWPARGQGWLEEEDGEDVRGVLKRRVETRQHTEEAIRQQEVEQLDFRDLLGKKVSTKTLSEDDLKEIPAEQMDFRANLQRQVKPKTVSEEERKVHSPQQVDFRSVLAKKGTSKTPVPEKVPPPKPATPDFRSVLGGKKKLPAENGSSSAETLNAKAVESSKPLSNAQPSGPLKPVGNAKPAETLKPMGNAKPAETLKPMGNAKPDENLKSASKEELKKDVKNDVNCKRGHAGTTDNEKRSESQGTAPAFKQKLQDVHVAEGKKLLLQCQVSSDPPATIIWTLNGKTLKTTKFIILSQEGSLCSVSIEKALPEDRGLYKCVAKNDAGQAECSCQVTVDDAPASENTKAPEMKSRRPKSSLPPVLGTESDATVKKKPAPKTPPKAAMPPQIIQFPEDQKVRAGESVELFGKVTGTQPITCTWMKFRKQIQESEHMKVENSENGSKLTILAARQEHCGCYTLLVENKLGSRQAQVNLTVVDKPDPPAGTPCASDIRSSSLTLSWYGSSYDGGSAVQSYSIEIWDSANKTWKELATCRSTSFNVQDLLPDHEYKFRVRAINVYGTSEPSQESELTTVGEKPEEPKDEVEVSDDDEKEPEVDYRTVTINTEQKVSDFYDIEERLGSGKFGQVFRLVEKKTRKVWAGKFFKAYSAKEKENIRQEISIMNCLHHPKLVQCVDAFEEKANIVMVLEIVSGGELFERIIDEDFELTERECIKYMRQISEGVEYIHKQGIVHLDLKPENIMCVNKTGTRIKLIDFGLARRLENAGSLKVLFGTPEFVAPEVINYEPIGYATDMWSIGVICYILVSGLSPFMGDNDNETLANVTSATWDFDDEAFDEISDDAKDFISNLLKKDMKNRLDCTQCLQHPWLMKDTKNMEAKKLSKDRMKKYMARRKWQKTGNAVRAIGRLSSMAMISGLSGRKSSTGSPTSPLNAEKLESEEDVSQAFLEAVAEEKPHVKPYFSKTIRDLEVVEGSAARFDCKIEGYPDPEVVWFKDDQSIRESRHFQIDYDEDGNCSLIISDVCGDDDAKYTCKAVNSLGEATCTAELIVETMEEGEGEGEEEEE

CAMK2A (human) = CAMK2A (human) (UniProt Q9UQM7)
STK35 (human) = STK35 (human) (UniProt Q8TDR2)
Chain of STK35 (human) (Q8TDR2 whole entry, looked up): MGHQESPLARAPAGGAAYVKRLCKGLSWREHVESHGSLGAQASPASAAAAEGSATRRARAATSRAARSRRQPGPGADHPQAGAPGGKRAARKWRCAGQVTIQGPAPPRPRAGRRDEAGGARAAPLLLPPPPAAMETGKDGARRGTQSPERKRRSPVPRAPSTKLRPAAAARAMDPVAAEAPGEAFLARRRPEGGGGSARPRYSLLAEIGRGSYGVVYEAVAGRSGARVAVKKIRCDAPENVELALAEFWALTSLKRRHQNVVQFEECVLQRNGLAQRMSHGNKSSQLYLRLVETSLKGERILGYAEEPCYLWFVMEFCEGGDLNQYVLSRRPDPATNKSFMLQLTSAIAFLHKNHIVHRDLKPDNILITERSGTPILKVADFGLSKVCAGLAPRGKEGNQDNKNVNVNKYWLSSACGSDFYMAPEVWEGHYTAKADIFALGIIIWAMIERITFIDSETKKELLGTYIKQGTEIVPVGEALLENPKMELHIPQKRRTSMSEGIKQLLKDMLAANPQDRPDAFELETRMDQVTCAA

CDK8 (human) = CDK8 (human) (UniProt P49336)

Chain of TNIK (human) (Q9UKE5 whole entry, looked up): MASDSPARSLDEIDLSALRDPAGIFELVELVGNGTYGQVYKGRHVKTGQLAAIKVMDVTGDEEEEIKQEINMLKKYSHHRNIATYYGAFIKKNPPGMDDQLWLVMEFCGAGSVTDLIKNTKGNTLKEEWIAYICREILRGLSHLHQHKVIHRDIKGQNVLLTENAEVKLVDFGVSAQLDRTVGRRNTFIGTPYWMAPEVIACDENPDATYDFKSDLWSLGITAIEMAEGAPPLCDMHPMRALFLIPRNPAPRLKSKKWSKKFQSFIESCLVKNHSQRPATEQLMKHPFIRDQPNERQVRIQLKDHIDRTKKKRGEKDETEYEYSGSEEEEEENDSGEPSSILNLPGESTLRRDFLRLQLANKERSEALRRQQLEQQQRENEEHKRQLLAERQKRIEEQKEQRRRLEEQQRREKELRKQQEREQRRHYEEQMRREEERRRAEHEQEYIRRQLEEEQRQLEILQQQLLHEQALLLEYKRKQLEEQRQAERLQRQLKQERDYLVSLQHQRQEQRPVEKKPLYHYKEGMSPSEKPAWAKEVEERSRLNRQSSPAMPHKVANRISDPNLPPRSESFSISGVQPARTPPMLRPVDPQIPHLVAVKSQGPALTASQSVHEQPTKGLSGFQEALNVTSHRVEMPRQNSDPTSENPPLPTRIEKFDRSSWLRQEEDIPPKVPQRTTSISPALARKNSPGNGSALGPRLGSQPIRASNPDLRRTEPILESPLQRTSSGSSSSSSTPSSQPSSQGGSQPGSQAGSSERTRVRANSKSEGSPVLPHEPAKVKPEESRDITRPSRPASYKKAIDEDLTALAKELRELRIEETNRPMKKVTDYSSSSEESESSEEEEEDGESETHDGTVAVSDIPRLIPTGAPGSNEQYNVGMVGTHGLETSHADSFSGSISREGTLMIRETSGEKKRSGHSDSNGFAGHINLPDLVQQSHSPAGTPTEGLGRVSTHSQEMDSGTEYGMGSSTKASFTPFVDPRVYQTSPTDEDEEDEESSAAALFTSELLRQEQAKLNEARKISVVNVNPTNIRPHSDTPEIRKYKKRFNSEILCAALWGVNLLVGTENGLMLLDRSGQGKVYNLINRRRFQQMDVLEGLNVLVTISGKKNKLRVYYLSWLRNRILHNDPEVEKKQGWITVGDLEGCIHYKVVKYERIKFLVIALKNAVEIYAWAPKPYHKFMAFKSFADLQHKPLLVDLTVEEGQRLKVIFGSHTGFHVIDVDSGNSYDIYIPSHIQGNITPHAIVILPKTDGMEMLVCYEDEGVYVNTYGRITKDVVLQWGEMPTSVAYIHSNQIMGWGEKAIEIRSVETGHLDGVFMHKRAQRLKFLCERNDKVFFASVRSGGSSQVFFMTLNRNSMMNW

| Structure (SMILES) | kinase still bound, per cent of control (TNIK (human)) [%] | kinase still bound, per cent of control (PRKAA1 (human)) [%] | kinase still bound, per cent of control (MST4 (human)) [%] | kinase still bound, per cent of control (BRSK1 (human)) [%] | kinase still bound, per cent of control (RIOK1 (human)) [%] | kinase still bound, per cent of control (PRKCQ (human)) [%] | kinase still bound, per cent of control (FLT4 (human)) [%] | kinase still bound, per cent of control (CAMK2D (human)) [%] | kinase still bound, per cent of control (AKT2 (human)) [%] | kinase still bound, per cent of control (MELK (human)) [%] | kinase still bound, per cent of control (MAPK6 (human)) [%] | kinase still bound, per cent of control (MKNK1 (human)) [%] | kinase still bound, per cent of control (CSNK2A1 (human)) [%] | kinase still bound, per cent of control (CAMK2B (human)) [%] | kinase still bound, per cent of control (CSNK1G3 (human)) [%] | kinase still bound, per cent of control (RPS6KA4 KD2 (human)) [%] | kinase still bound, per cent of control (FGR (human)) [%] | kinase still bound, per cent of control (CDC2L2 (human)) [%] | kinase still bound, per cent of control (CSNK2A2 (human)) [%] | kinase still bound, per cent of control (AURKC (human)) [%] | other results |
| --- | --- | --- | --- | --- | --- | --- | --- | --- | --- | --- | --- | --- | --- | --- | --- | --- | --- | --- | --- | --- | --- |
| COc1cc(C(=O)NC2CCN(C)CC2)ccc1Nc1ncc2c(n1)N(C1CCCC1)CCC(=O)N2C(C)C | 100 | 100 | 100 | 100 | 100 | 100 | 0 | 100 | 100 | 100 | 100 | 100 | 100 | 100 | 100 | 100 | 100 | 100 | 100 | 100 | kinase still bound, per cent of control (LATS1 (human)): 100%; kinase still bound, per cent of control (LIMK2 (human)): 100%; kinase still bound, per cent of control (CDK9 (human)): 100%; kinase still bound, per cent of control (MAP4K4 (human)): 100%; kinase still bound, per cent of control (PRKD1 (human)): 100%; kinase still bound, per cent of control (ERBB2 (human)): 100%; kinase still bound, per cent of control (NUAK2 (human)): 100%; kinase still bound, per cent of control (SIK2 (human)): 100%; kinase still bound, per cent of control (NLK (human)): 100%; kinase still bound, per cent of control (AKT3 (human)): 100%; kinase still bound, per cent of control (CLK1 (human)): 100%; kinase still bound, per cent of control (PAK1 (human)): 100%; kinase still bound, per cent of control (CSNK1G2 (human)): 100%; kinase still bound, per cent of control (RIPK1 (human)): 100%; kinase still bound, per cent of control (SRPK1 (human)): 0%; kinase still bound, per cent of control (PRKCH (human)): 100%; kinase still bound, per cent of control (MYLK (human)): 100%; kinase still bound, per cent of control (CAMK2A (human)): 100%; kinase still bound, per cent of control (STK35 (human)): 100%; kinase still bound, per cent of control (CDK8 (human)): 100% |
| Cc1cc([C@@H](C)Nc2ccccc2C(=O)O)c2nc(N3CCOCC3)cc(=O)n2c1 | 98 | 100 | 100 | 99 | 100 | 97 | 95 | 95 | 86 | 100 | 100 | 92 | 100 | 83 | 100 | 100 | 95 | 100 | 100 | 93 | kinase still bound, per cent of control (LATS1 (human)): 100%; kinase still bound, per cent of control (LIMK2 (human)): 100%; kinase still bound, per cent of control (CDK9 (human)): 100%; kinase still bound, per cent of control (MAP4K4 (human)): 97%; kinase still bound, per cent of control (PRKD1 (human)): 89%; kinase still bound, per cent of control (ERBB2 (human)): 100%; kinase still bound, per cent of control (NUAK2 (human)): 84%; kinase still bound, per cent of control (SIK2 (human)): 100%; kinase still bound, per cent of control (NLK (human)): 94%; kinase still bound, per cent of control (AKT3 (human)): 100%; kinase still bound, per cent of control (CLK1 (human)): 74%; kinase still bound, per cent of control (PAK1 (human)): 100%; kinase still bound, per cent of control (CSNK1G2 (human)): 88%; kinase still bound, per cent of control (RIPK1 (human)): 100%; kinase still bound, per cent of control (SRPK1 (human)): 100%; kinase still bound, per cent of control (PRKCH (human)): 82%; kinase still bound, per cent of control (MYLK (human)): 70%; kinase still bound, per cent of control (CAMK2A (human)): 75%; kinase still bound, per cent of control (STK35 (human)): 95%; kinase still bound, per cent of control (CDK8 (human)): 79% |

Source: the kinase profiling compilation of Christmann-Franck et al. (2016)
